Measurements: patent US20100222423A1, “ASPALATHIN-LIKE DIHYDROCHALCONE, EXTRACTS FROM UNFERMENTED ROOIBOS AND PROCESS FOR PREPARATION” (KNEIPP-WERKE KNEIPP-MITTEL-ZENTRALE GMBH & CO. KG, priority 2007, published 2010)

Test system: Fischer-344 rats
Experiment: Tele-Stereo-EEG investigations in the rat (field potentials from frontal cortex, hippocampus, striatum, reticular formation)
Format: in vivo
Details: for effect on EEG frequencies in comparison with molecular constituents: approximately equimolar administration; for changes in EEG frequencies / power density compared with saline solution: oral single dose 3 or 6 mg/kg, up to 5 hours after application, n=6 rats
Procedure: The changes in the EEG (electroencephalography) frequencies was determined after administration of saline solution (control) and the compound of the formula I orally (3 or 6 mg/kg body weight).
The investigations were carried out analogously to the method described by W. Dimpfel (Dimpfel, W., Preclinical database of pharmaco-specific rat EEG fingerprints (Tele-Stereo-EEG). Eur. J. Med. Res. (2003) δ: 199-207) as follows: 4 Bipolar concentric electrodes together with a microplug on a common baseplate were implanted in six male adult Fischer-344 rats (converted day-night) aged 6 months. The plug served for recording a four-channel transmitter for telemetric transmission of the field potentials derived from frontal cortex, hippocampus, striatum and reticular formation. The signals were subjected to a fast Fourier transformation on a computer system (“EEG analysis” software, OS science operating system, “LabTeam” laboratory computer from MediSyst, Linden, Germany) in realtime and the power density spectra were determined in each case over 60 minutes. The division of the spectra into 6 different frequency ranges permitted the determination of pharmaco-specific changes in relation to the initial values, measured in each case before application, within these frequency bands.
Application protocol of the substances: the substances were applied orally 45 minutes after the beginning of the measurements (initial value). Five minutes later, the measurements were started again, analyzed continuously at least over the next 5 hours and collected in 60 minute periods. The test substance was applied in a dose of 3 and 6 mg/kg (compound of the formula I). The experimental series was begun with the administration of saline solution (control), which led to no abnormal change (FIG. 6).
The statistical comparison of the experiments with the results which were measured after administration of saline solution was effected with the aid of multivariant analysis according to Ahrens and Läuter (cf. H. Ahrens, J. Läuter, “Mehrdimensionale Varianzanalyse” [Multidimensional variance analysis]” (1974), Akademie Verlag, Berlin) on the basis of the changes within the individual frequency bands in all regions of the brain as variables.

O=C(CCc1ccc(O)c(O)c1)c1c(O)cc(O)c([C@@H]2O[C@H](CO)[C@@H](O)[C@H](O)[C@H]2O)c1O [aspalathin]
effect on EEG frequencies in comparison with molecular constituents (oral, rat): not by parts of the molecule

O=C(CCc1ccc(O)c(O)c1)c1c(O)c(C2OC(CO)C(O)C(O)C2O)c(O)c(C2c3c(O)cc(O)cc3OC(c3ccc(O)c(O)c3)C2O)c1O (centres unmarked) [compound according to formula I]
effect on EEG frequencies in comparison with molecular constituents (oral, rat): the effect can be achieved
changes in EEG frequencies / power density compared with saline solution: stable changes in the power density in all areas of the brain
changes in EEG frequencies / power density compared with saline solution (listed as compound according to the formula I): dose-dependent changes in the EEG frequencies
pattern of changes in electrical brain activity compared with reference medicaments (oral single dose, rat): corresponded to those after administration of metanicotine, galantamine, tacrine, L-DOPA or nefopam
discriminance analysis of EEG frequency changes (four regions of the brain, 6 frequency bands, 24 variables) (rat, compared with medicaments of the database): close to that of galantamine, tacrine and nefopam
crossing of the blood-brain barrier (inferred from central nervous activity) (rat, oral, substance or its metabolites): evidently cross the blood-brain barrier

catechin [reference compound]
effect on EEG frequencies in comparison with molecular constituents (oral, rat): not by parts of the molecule
